Assays:
Neprilysin = Neprilysin (Homo sapiens, UniProt P08473); test: Inhibition of human neprilysin by fluorometric analysis
[1] = Competitive inhibition of full length Mycobacterium tuberculosis recombinant ZMP1 expressed in Escherichia coli BL21(DE3) using MCA-Pro-Leu-Gly-Leu-Dpa-Ala-Arg-NH2 as substrate by sigma plot analysis
[2] = Selectivity index, ratio of Ki for human neprilysin to Ki for full length Mycobacterium tuberculosis recombinant ZMP1
[3] = system: Mycobacterium tuberculosis; test: Inhibition of full length Mycobacterium tuberculosis recombinant ZMP1 expressed in Escherichia coli BL21(DE3) using MCA-Pro-Leu-Gly-Leu-Dpa-Ala-Arg-NH2 as substrate at 100 uM by fluorometric analysis relative to control

Neprilysin, sequence (P08473 whole entry): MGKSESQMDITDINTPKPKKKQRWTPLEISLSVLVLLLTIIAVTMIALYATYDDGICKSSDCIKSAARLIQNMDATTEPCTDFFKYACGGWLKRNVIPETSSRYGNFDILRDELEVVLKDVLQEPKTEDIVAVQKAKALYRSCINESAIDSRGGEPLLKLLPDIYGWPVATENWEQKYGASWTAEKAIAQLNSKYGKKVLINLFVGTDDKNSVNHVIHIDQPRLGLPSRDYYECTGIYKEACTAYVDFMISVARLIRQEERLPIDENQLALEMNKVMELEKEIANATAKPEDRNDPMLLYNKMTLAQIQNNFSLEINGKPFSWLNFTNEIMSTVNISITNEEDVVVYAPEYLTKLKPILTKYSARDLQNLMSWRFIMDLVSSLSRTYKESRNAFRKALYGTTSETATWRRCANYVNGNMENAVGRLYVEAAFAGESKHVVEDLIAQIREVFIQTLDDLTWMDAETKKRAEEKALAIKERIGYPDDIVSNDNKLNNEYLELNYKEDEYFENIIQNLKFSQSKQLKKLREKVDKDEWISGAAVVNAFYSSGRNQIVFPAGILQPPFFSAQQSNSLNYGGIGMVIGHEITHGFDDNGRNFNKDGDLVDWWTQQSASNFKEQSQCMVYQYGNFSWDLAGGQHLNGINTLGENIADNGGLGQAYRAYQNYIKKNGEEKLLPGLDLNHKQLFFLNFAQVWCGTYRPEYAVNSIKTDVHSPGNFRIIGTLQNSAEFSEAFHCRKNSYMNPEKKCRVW

Row | Compound | Ki [1] [µM] | inhibition [3] [%] | other results
1 | O=C(O)c1ccc(/C=C2/SC(=S)N([C@@H](Cc3ccccc3)C(=O)O)C2=O)cc1 | 1.7 |  | Ki (Neprilysin): 37 µM; Ratio Ki [2]: 21.7
2 | C=Cc1[nH]c(C(C)NC(=O)c2ccc(=O)n(CC(=O)NCc3ccc(F)cc3)c2)nc1C (stereo not drawn) |  | 16 | 
3 | O=C(O)c1ccc(/C=C2/SC(=S)N([C@H](Cc3ccccc3)C(=O)O)C2=O)cc1 | 0.094 |  | Ki (Neprilysin): 25 µM; Ratio Ki [2]: 266
4 | O=C(O)CN1C(=O)/C(=C2/Sc3ccccc3N2CCCS(=O)(=O)O)SC1=S | 4.8 |  | 
5 | COC(=O)c1ccc(/C=C2\SC(=S)N([C@H](Cc3ccccc3)C(=O)O)C2=O)cc1 | 5.7 |  | 
6 | O=C(O)c1ccc(/C=C2/SC(=S)N(C(Cc3ccccc3)C(=O)O)C2=O)cc1 (racemic) | 0.39 |  | 
7 | O=C(O)CCC(C(=O)O)N1C(=O)/C(=C\c2ccc(-c3cccc(Cl)c3Cl)o2)SC1=S (stereo not drawn) | 3.7 |  | 
8 | O=C(NC(Cc1ccccc1)C(=O)O)/C(=C/c1cccc([N+](=O)[O-])c1)NC(=O)c1ccco1 (stereo not drawn) |  | 54 | 
9 | O=C(OCc1ccccc1)c1ccc(/C=C2\SC(=S)N([C@H](Cc3ccccc3)C(=O)O)C2=O)cc1 | 1.8 |  | 
10 | O=C1/C(=C\c2ccc(-c3cccc([N+](=O)[O-])c3)o2)SC(=S)N1CCS(=O)(=O)O | 32.2 |  | 
11 | O=C(O)CC(C(=O)O)N1C(=O)/C(=C\c2ccc(O)c(O)c2)SC1=S (stereo not drawn) | 2.7 |  | 
12 | O=S(=O)(O)CCCSc1sc2ccc(Cl)cc2[n+]1CCCS(=O)(=O)O | 32.9 | 78 | 
13 | Cn1c(=O)c2c(nc(SCC(=O)O)n2Cc2ccc(Cl)cc2)n(C)c1=O |  | 28 | 

— ChEMBL document CHEMBL3259626, “Discovery of the first potent and selective Mycobacterium tuberculosis Zmp1 inhibitor” (Bioorg Med Chem Lett, 2014)
